Reference: PubChem BioAssay AID1963843 (Molecular Pharmacology Branch, DTP, NCI, 2024)

Tested on: 616215-338-R-J1-PDC complex spheroid viability
Test: Anticancer human tumor 616215-338-R-J1-PDC patient-derived colon adenocarcinoma cell line growth inhibition [POLQ]
Conditions: for IC50: curve of first compound; for viability, T/C: stronger effect = lower value
In short: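 Three-cell-type spheroids modelling solid tumor plus stroma served as the readout system; POL inhibitors were tested individually and in combination, concentration ranges set by clinical Cmax where known.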

[1] = second compound 0.0316 µM, first compound 0.0316 µM
[2] = second compound 0.0316 µM, first compound 0.1 µM
[3] = second compound 0.0316 µM, first compound 0.316 µM
[4] = second compound 0.0316 µM, first compound 1 µM
[5] = second compound 0.1 µM, first compound 0.0316 µM
[6] = second compound 0.1 µM, first compound 0.1 µM
[7] = second compound 0.1 µM, first compound 0.316 µM
[8] = second compound 0.1 µM, first compound 1 µM
[9] = second compound 0.316 µM, first compound 0.0316 µM
[10] = second compound 0.316 µM, first compound 0.1 µM
[11] = second compound 0.316 µM, first compound 0.316 µM
[12] = second compound 0.316 µM, first compound 1 µM
[13] = second compound 1 µM, first compound 0.0316 µM
[14] = second compound 1 µM, first compound 0.1 µM
[15] = second compound 1 µM, first compound 0.316 µM
[16] = second compound 1 µM, first compound 1 µM
[17] = second compound 3.16 µM, first compound 0.0316 µM
[18] = second compound 3.16 µM, first compound 0.1 µM
[19] = second compound 3.16 µM, first compound 0.316 µM
[20] = second compound 3.16 µM, first compound 1 µM
[21] = second compound 10 µM, first compound 0.0316 µM
[22] = second compound 10 µM, first compound 0.1 µM
[23] = second compound 10 µM, first compound 0.316 µM
[24] = second compound 10 µM, first compound 1 µM
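Note: spheroids exposed to compounds for one week before readout.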
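Throughout, for viability, T/C: percent viability relative to DMSO vehicle wells taken as 100%.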

With `CC1COCCN1c1cc(C2(S(C)(=N)=O)CC2)nc(-c2ccnc3[nH]ccc23)n1` (centres undefined) + Cc1cccc(N(C)C(=O)C2C(O)CCN2c2nc(C)cc(C(F)(F)F)c2C#N)c1 the IC50 (second compound 0.0316 µM) was > 10000 nM, the IC50 (second compound 0.1 µM) was > 10000 nM and the IC50 (second compound 0.316 µM) was > 10000 nM. The IC50 (second compound 1 µM) was > 10000 nM, the IC50 (second compound 3.16 µM) was > 10000 nM and the IC50 (second compound 10 µM) was > 10000 nM. For the same molecule, the viability, T/C [1] was 88.5%, the viability, T/C [2] was 104% and the viability, T/C [3] was 94.8%. For the same molecule, the viability, T/C [4] was 99.7%, the viability, T/C (second compound 0.0316 µM, first compound 3.16 µM) was 101% and the viability, T/C (second compound 0.0316 µM, first compound 10 µM) was 69.1%. For the same molecule, the viability, T/C [5] was 102%, the viability, T/C [6] was 95.1% and the viability, T/C [7] was 101%. The viability, T/C [8] was 101%, the viability, T/C (second compound 0.1 µM, first compound 3.16 µM) was 95.6% and the viability, T/C (second compound 0.1 µM, first compound 10 µM) was 68.2%. It also gave a viability, T/C [9] of 94.9%, a viability, T/C [10] of 98.9% and a viability, T/C [11] of 96.8%. For the same molecule, the viability, T/C [12] was 102%, the viability, T/C (second compound 0.316 µM, first compound 3.16 µM) was 89.1% and the viability, T/C (second compound 0.316 µM, first compound 10 µM) was 62%. The viability, T/C [13] was 113%, the viability, T/C [14] was 102% and the viability, T/C [15] was 98.2%. For the same molecule, the viability, T/C [16] was 101%, the viability, T/C (second compound 1 µM, first compound 3.16 µM) was 97% and the viability, T/C (second compound 1 µM, first compound 10 µM) was 69.1%. The viability, T/C [17] was 102%, the viability, T/C [18] was 96% and the viability, T/C [19] was 91.5%. It also gave a viability, T/C [20] of 104%, a viability, T/C (second compound 3.16 µM, first compound 3.16 µM) of 86.4% and a viability, T/C (second compound 3.16 µM, first compound 10 µM) of 74.7%. It also gave a viability, T/C [21] of 114%, a viability, T/C [22] of 111% and a viability, T/C [23] of 103%. For the same molecule, the viability, T/C [24] was 111%, the viability, T/C (second compound 10 µM, first compound 3.16 µM) was 95.7% and the viability, T/C (second compound 10 µM, first compound 10 µM) was 71.7%.

Molecule `CCc1c2c(nc3ccc(O)cc13)-c1cc3c(c(=O)n1C2)COC(=O)[C@]3(O)CC` + Nc1ccc(C#CCN(C(=O)Cc2ncc(C(F)(F)F)cc2C(F)(F)F)c2ccc(F)cc2)nn1 has an IC50 (second compound 0.0316 µM) of 10.4 nM, an IC50 (second compound 0.1 µM) of 14.8 nM and an IC50 (second compound 0.316 µM) of 18.1 nM. It also gave an IC50 (second compound 1 µM) of 8.73 nM, an IC50 (second compound 3.16 µM) of 8.16 nM and an IC50 (second compound 10 µM) of 7.26 nM. The viability, T/C (second compound 0.0316 µM, first compound 0.00316 µM) was 82.6%, the viability, T/C (second compound 0.0316 µM, first compound 0.01 µM) was 51.4% and the viability, T/C [1] was 28.6%. The viability, T/C [2] was 23.1%, the viability, T/C [3] was 15.7% and the viability, T/C [4] was 9.67%. The viability, T/C (second compound 0.1 µM, first compound 0.00316 µM) was 85.5%, the viability, T/C (second compound 0.1 µM, first compound 0.01 µM) was 55.2% and the viability, T/C [5] was 33.7%. For the same molecule, the viability, T/C [6] was 32.2%, the viability, T/C [7] was 15.5% and the viability, T/C [8] was 9.4%. For the same molecule, the viability, T/C (second compound 0.316 µM, first compound 0.00316 µM) was 72.8%, the viability, T/C (second compound 0.316 µM, first compound 0.01 µM) was 71% and the viability, T/C [9] was 30.3%. The viability, T/C [10] was 28.1%, the viability, T/C [11] was 17.3% and the viability, T/C [12] was 10.2%. It also gave a viability, T/C (second compound 1 µM, first compound 0.00316 µM) of 83.8%, a viability, T/C (second compound 1 µM, first compound 0.01 µM) of 37.8% and a viability, T/C [13] of 34%. The viability, T/C [14] was 28.9%, the viability, T/C [15] was 17% and the viability, T/C [16] was 10.2%. It also gave a viability, T/C (second compound 3.16 µM, first compound 0.00316 µM) of 77.6%, a viability, T/C (second compound 3.16 µM, first compound 0.01 µM) of 39.2% and a viability, T/C [17] of 29.3%. The viability, T/C [18] was 28.6%, the viability, T/C [19] was 11.9% and the viability, T/C [20] was 10.9%. It also gave a viability, T/C (second compound 10 µM, first compound 0.00316 µM) of 59.2%, a viability, T/C (second compound 10 µM, first compound 0.01 µM) of 47.8% and a viability, T/C [21] of 28.5%. It also gave a viability, T/C [22] of 22.5%, a viability, T/C [23] of 16.1% and a viability, T/C [24] of 12.8%.
